According to ChEMBL document CHEMBL3507680, “University of Dundee, Gates Library screen for HepG2 cell viability”:

Experiment: Human HepG2 cell viability assay in 384 well format
Assay type: toxicity, cell-based
Design: dose 125 nL, time 70.5 hour; concentration not given beside the values
Conditions: HepG2 cells, read-out: Inhibition

Row | SMILES | cytotoxicity at 70.5 h [%]
1 | NC(c1ccc(Cl)cc1)c1cccs1 (stereo unspecified) | 9.24
2 | CN1CCC2(Cc3ccccc3CN(C(=O)Cc3cccc(Cl)c3)C2)C1 (stereo unspecified) | 30.2
3 | CCCS(=O)(=O)N1CC(=O)N(CCCc2ccccc2)CC(O)C1 (stereo unspecified) | 10.8
4 | Cc1nc(C2CCN(C)CC2)cc(N2CCOc3ccc(Cl)cc3C2)n1 | 32.5
5 | Cc1[nH]ncc1C(=O)N1CCCC(c2ccn[nH]2)C1 (stereo unspecified) | -12.2
6 | C[C@@H]1CN(C(=O)c2ccc(Br)cc2F)CC(C(N)=O)O1 (stereo partly specified) | -4.88
7 | CC(NC(=O)CNc1cc2c(cc1Cl)NC(=O)CO2)c1ccco1 (stereo unspecified) | 14.6
8 | c1ccc(-c2nnn3c2COC(CNCC2CCOCC2)C3)cc1 (stereo unspecified) | -5.85
9 | CCN1C(=O)CCCC12CCCN(C(=O)c1conc1C)C2 (stereo unspecified) | -12.9
10 | Cc1nc(CN2CCC(CNC(=O)Nc3ccccn3)CC2)oc1C | -8.33
11 | CC(C)CNc1c(NCc2ccco2)c(=O)c1=O | -11.5
12 | Cc1cc(C)nc(NC2CCCN(CCCc3ccccc3)C2)n1 (stereo unspecified) | 54.5
13 | O=C(NCC1CC1)c1c2c(N3CCCC3)ncnc2n2ccccc12 | 9.08
14 | CCc1ncnc2c1CCN(C(=O)Cc1ccccn1)CC2 | -19.9
15 | CC(=O)Nn1ccc2c(nnc3c(-c4ccccc4)cnn32)c1=O | -28.5
16 | COc1cccc(CN(Cc2ncc[nH]2)Cc2ccco2)c1 | -2.53
17 | CCn1cc(NC(=O)C2CCN(Cc3ccccc3)CC2)cn1 | 2.21
18 | COC(=O)CCNC(=O)c1coc(COc2ccc(F)cc2)n1 | -5.99
19 | COc1ccccc1C(=O)N1CC(=O)N(Cc2ccco2)CC(O)C1 (stereo unspecified) | -12.4
20 | CNCC[C@H]1CC(C)(C)Oc2ccc(OC)cc21 | -0.183
21 | CCOC1COC2(CCN(Cc3cccc(F)c3)CC2)C1 (stereo unspecified) | -12
22 | Cc1cc(C2CCCN2C(=O)c2cc3c(s2)CCC3)on1 (stereo unspecified) | -16.3
23 | CN(Cc1ccsc1)C(=O)c1cccc(NS(C)(=O)=O)c1 | -7.22
24 | CCc1noc(C(C)N2CCNCC2)n1 (stereo unspecified) | 0.0476

Row | SMILES | cytotoxicity at 70.5 h [%]
25 | O=C(NCCNc1ccc(C(F)(F)F)cn1)c1cncc(Br)c1 | -12.5
26 | CCCN(CC(=O)NC)C(=O)c1ccc(-c2ccsc2)nc1C | -4.88
27 | c1cnc(-c2nc(CNCCn3cccn3)cs2)nc1 | 8.63
28 | Cc1nc(C2CCCN(C(=O)Cn3ccccc3=O)C2)sc1C (stereo unspecified) | -2.49
29 | Cc1ccnc(OC[C@]23COC[C@H]2CN(C(=O)Cc2ccsc2)C3)n1 | -7.56
30 | COc1ccc(-c2nc(CN3CCc4cnc(C)nc4C3)no2)cc1 | -6.23
31 | c1cc(-c2nc3c(c(NCCc4c[nH]cn4)n2)CCNCC3)ccn1 | 5.61
32 | O=C(CCc1cc2n(n1)CCN(CCCn1cccc1)C2)N1CCCC1 | -10.4
33 | O=C1OC2(CCNCC2)CN1CC(=O)N1CCC1c1cccs1 (stereo unspecified) | -6.81
34 | O=C(Nc1nc2c(s1)CNCC2)NC1CCCC1 | 18.7
35 | O=C1NCC2=C1C(c1ccccc1)Nc1ccccc1N2 (stereo unspecified) | -2.81
36 | Cn1ncc2ccc(C3CCCN(Cc4ccsc4)C3)nc21 (stereo unspecified) | 7.16
37 | Cc1cnn(CCCNC(=O)NC(C)C(=O)Nc2ccccc2)c1 (stereo unspecified) | 6.05
38 | CCCS(=O)(=O)N1CCC(c2ccc(OC)cc2)CC1 | -5.25
39 | Cn1cccc1C(=O)NCc1ccnc(C2CCCOC2)n1 (stereo unspecified) | -4.4
40 | CCc1n[nH]c(C2CN(Cc3nnc(C4CC4)o3)CCO2)n1 (stereo unspecified) | -1.31
41 | CN1CCC(n2nc(Cc3cccs3)nc2-c2ccncc2)CC1 | 2.89
42 | COc1cccc(-c2c[nH]c(C3CCCN3)n2)c1 (stereo unspecified) | -4.68
43 | Cc1ccc2c(c1)c(CNC(=O)C1CC(=O)N(CCN(C)C)C1)nn2C (stereo unspecified) | -0.487
44 | CCN(CC)CC(=O)NCc1cccnc1-n1cnc2ccccc21 | -3.36
45 | Cc1cc(CNC(=O)C2CCCN2C(=O)OC(C)(C)C)no1 (stereo unspecified) | -0.379
46 | Cc1cc(C[C@@H]2CCC[C@H]2NCc2cccc(F)c2F)on1 | -2.88
47 | CC(C)(C)c1cnc(CN2CCC(NC(=O)Nc3ccccc3)CC2)o1 | 15.4
48 | Cn1ccnc1CN1CCC2(CC1)CC(NC(=O)c1ccccn1)CO2 (stereo unspecified) | 8.41

Row | SMILES | cytotoxicity at 70.5 h [%]
49 | CSCc1ccc(CNC2CCCN(c3ccc(C)nn3)C2)o1 (stereo unspecified) | -9.42
50 | CCc1ncc(C(=O)N(C)CCc2nc3cc(OC)ccc3[nH]2)cn1 | 11.2
51 | Cc1ccccc1CC1(C(=O)O)CCCN(c2ncnc3[nH]ccc23)C1 (stereo unspecified) | -5.97
52 | Cc1cccc(NC(=O)N2CCC3(CC(=O)N(c4ccsc4)C3)C2)c1 (stereo unspecified) | -5.62
53 | CC(NC(=O)COc1ccccc1Cl)c1nnc2n1CCC2 (stereo unspecified) | -6.92
54 | CC(C)Cc1cc(NC(=O)c2cccnc2)n(C)n1 | -9.43
55 | O=C1CC(NS(=O)(=O)c2ccc(Br)cc2)CN1 (stereo unspecified) | -4.25
56 | c1cnn(CCN2CCOC(Cn3cccn3)C2)c1 (stereo unspecified) | -4.95
57 | O=C(NC1CC1)N(CCc1ccccc1)C1CCOC1 (stereo unspecified) | 12.1
58 | CN(Cc1cnccn1)S(=O)(=O)c1ccc(C(F)(F)F)nc1 | 36.5
59 | CNC(=O)c1cc(NC(=O)NC2CC2)ccc1F | -8.55
60 | CC(C)NC(=O)N1CCCC2(CCN(c3ccccc3)C2=O)C1 (stereo unspecified) | -7.73
61 | O=C(C1SCCc2sccc21)N1CCCCC1 (stereo unspecified) | -6.95
62 | COc1cccc(-c2noc(C3CCN(Cc4ccc(C)cc4)C3)n2)c1 (stereo unspecified) | 23.2
63 | Cc1cc(C)c2nc(CN3CCC(N4CCOC4=O)CC3)cc(O)c2c1 | 2.37
64 | CN(C)S(=O)(=O)N1CCC(c2ccncn2)CC1 | -11.3
65 | CC1CCN(C(=O)c2cnc3cc(C(=O)N(C)C)n(C)c3c2)CC1 | 6.93
66 | N#Cc1cccc(S(=O)(=O)NC(=O)C2CC(c3ccccc3)=NO2)c1 (stereo unspecified) | -18.7
67 | CN(C)C(=O)N1CCCC2(CCN(Cc3ccc(Cl)c(F)c3)C2)C1 (stereo unspecified) | -6.53
68 | O=C(c1cc(F)ccc1F)C1CCN(C(=O)c2cnccn2)CC1 | -4.44
69 | COc1ccccc1C1(O)CCCN(C(=O)c2cnc(SC)nc2)C1 (stereo unspecified) | -3.73
70 | COCCN1C(=O)[C@H]2CC[C@@H]1CN(c1ncccn1)C2 | 11.5
71 | Cc1ccc(C)c(OCCN(C)C(=O)CCc2cn[nH]c2)c1 | -12.7
72 | Cc1nccn1-c1ccc(NC(=O)C2CCCN2CC2CC2)cc1 (stereo unspecified) | -1.14

Row | SMILES | cytotoxicity at 70.5 h [%]
73 | COc1ccc2oc(C(C)NC(=O)NCC(C)(C)C(N)=O)c(C)c2c1 (stereo unspecified) | 23.4
74 | COCCN1CCCC2(CCN(c3nccnc3N(C)C)C2)C1=O (stereo unspecified) | -14.9
75 | Cc1cc(C)n(C2CCN(Cc3nc4ccccc4n3C)CC2)n1 | 1.81
76 | CCn1ncc2c1CCCC2NCc1ccc2c(c1)CCO2 (stereo unspecified) | -0.486
77 | O=C(NCCCn1nc2ccccn2c1=O)Nc1ccccc1 | 16.7
78 | O=C1COc2ccc(S(=O)(=O)NC3CC3)c3c2N1CCC3 | 7.26
79 | CCc1nc(CN2CCOC(Cn3nc(C)nc3C)C2)no1 (stereo unspecified) | 3.11
80 | O=C1C[C@H]2CC[C@@H](CN1)N2C(=O)CCCc1ccc(Cl)cc1 | -7.24
81 | Cc1ccc(CN2CCO[C@@H]3[C@@H](OCc4cccnc4)CC[C@@H]32)o1 | -4.63
82 | O=C(c1ccccc1C(F)(F)F)N1CC[C@@H](N2CCC(O)CC2)[C@H](O)C1 | -1.82
83 | O=C(NC1CC1)C1CNCCN1C(=O)CCc1ccc2c(c1)OCO2 (stereo unspecified) | -3.72
84 | CCN1CCC2(COCc3cnc(-c4cccnc4)nc32)C1 (stereo unspecified) | -13.9
85 | CCN(CC)S(=O)(=O)c1cc(Br)ccc1OC | -7.07
86 | CCOc1ccc(CNC(=O)N(C)CC(C)(C)O)cc1C | -60
87 | COCC(=O)NS(=O)(=O)c1ccc(F)c(F)c1 | -2.65
88 | Cc1ccc(C(=O)N(C)CCNS(C)(=O)=O)cc1Br | -5.18
89 | CN1CC=C(c2noc(CCC(=O)N3CCCC3)n2)CC1 | 7.74
90 | Cc1csc(N2CCN(Cc3cccnc3)CC2C)n1 (stereo unspecified) | -19.6
91 | Cc1ccccc1OCCN1CCn2c(C)nnc2C1 | 25.1
92 | Cc1ccc(-c2nnc(CN3CCNC(=O)C3)o2)cc1 | -4.25
93 | COC(=O)CCC(=O)N1CCC2(CN(Cc3cccc(F)c3)C2)C1 | 0.281
94 | COc1ccc(OCCNC(=O)c2ccc3c(=O)[nH][nH]c(=O)c3c2)cc1 | -0.259
95 | CN(C)CCO[C@H]1C[C@@H](O)C12CCN(c1ncccc1Cl)CC2 | -5.24
96 | O=C(Nc1cnn(CC(=O)N2CCCCO2)c1)c1ccccn1 | 2.98

Row | SMILES | cytotoxicity at 70.5 h [%]
97 | COc1cccc(N2C(=O)CC3(CCCNC3)C2=O)c1 (stereo unspecified) | -5.35
98 | CCCC(C)CS(=O)(=O)NCc1cccnc1OC (stereo unspecified) | 1.49
99 | Cc1noc(C2CCC3(CCN(C(=O)C4CCOCC4)CC3)O2)n1 (stereo unspecified) | 2.64
100 | Cc1ccccc1CN(Cc1ccccn1)C(=O)CN(C)C(C)C | 2.63
101 | CC(NC(=O)OC(C)(C)C)c1nnc(S(=O)(=O)Cc2ccc(Cl)cc2)o1 (stereo unspecified) | 4.02
102 | O=C(CNC(=O)Nc1cccc(Cl)c1SC(F)F)NC1CC1 | 16.9
103 | Cc1cnn(CC2CCCN2Cc2noc(C3CC3)n2)c1 (stereo unspecified) | 0.359
104 | O=C(c1ccnn1COc1ccc(Cl)cc1)N1CCOCC1 | -6.03
105 | CSCCCN1CCC(c2nnc(Cn3ccnc3)n2C2CC2)CC1 | -0.0518
106 | CCC(CC)n1nc(C)cc1NC(=O)C1CCCO1 (stereo unspecified) | -8.67
107 | Cc1ccc2cccc(C(=O)N3CCN(c4cccnn4)CC3)c2n1 | -9.4
108 | Cc1nc(CNCc2cccc(OC34CCCN(CC3)C4)c2)n[nH]1 (stereo unspecified) | -3.22
109 | CC(C)[C@H]1COC(=O)N1CC(=O)N1CCCN(C(=O)c2ccoc2)CC1 | -8.34
110 | O=S(=O)(c1cccs1)N1CCCn2cnc(CO)c2C1 | -1.4
111 | COc1cc(C)c(C)cc1S(=O)(=O)N(C)CC(=O)Nc1ccon1 | -15.2
112 | CN(C)c1nc2c(c(=O)[nH]1)CCN(C(=O)c1cccc3nccnc13)C2 | 2.31
113 | CC(NC(=O)N1CCCC1)c1ccc(S(N)(=O)=O)cc1 (stereo unspecified) | -13
114 | CCOc1ccc(C#N)cc1NCC(=O)Nc1cc(F)ccc1F | 6.71
115 | CCc1sc(C(=O)NC2CC2)cc1C | 8.53
116 | CC(=O)N1CCCc2sc(C(=O)Nc3ccc(C)nc3)nc21 | -1.24
